Results taken from patent US20240239787A1, “COMPOUNDS FOR USE IN THE TREATMENT OF CANCER” (Nanyang Technological University, priority 2021, published 2024).

Legend:
HIF-1α = HIF-1α level in hypoxic Hela cells (immunofluorescence imaging, Western blot); format: cell-based, human
Procedure: (§1) HeLa, Hek293T, MDA-MB-231, 4T1 or B16F10 cells (1.5×10^6 cells/mL) were treated with J266 (10 μM) for 6 h before incubating with JQ1-CBT at the indicated concentrations and time. This entire incubation was performed in normoxia condition. For NTR-moiety caged JW4, the cells were treated with JW4 (10 μM) 6 h prior to the addition of JQ1-CBT for a subsequent 12 h, and was performed entirely under hypoxic condition. Comparison of the downstream effect between the controls and drug-treated cells were completely executed in hypoxic condition. To work up, the cells were washed with cold PBS (pH 7.4) twice, and lysed with RIPA buffer supplemented with protease inhibitor cocktail and phosphatase inhibitor cocktail for 10 min at 4° C. Then, the lysed cells were collected and centrifuged at 13,500 rpm for 20 min at 4° C. The supernatant was collected and the protein concentration was analyzed by NanoDrop™ 2000/2000c Spectrophotometers. The lysate volumes were fine-tuned and loaded onto a Mini-PROTEAN® TGX™ 4-20% Precast Gel and was separated by SDS-PAGE. Then, the gel was transferred onto a PVDF membrane (100 V, 90 min, 4° C.), washed with TBS-T twice, and blocked with 1% BSA for 1 h at r.t. Next, the membrane was incubated with primary antibody overnight at 4° C., washed thrice with TBS-T, followed by incubation with goat anti-rabbit IgG (H+L) Secondary Antibody, HRP for 1 h. The membrane was supplemented with Radiance Q chemiluminescent ECL substrate and visualized using Amersham™ ImageQuant™ 800 biomolecular imager. B-Tubulin was used as the internal control.
Hela cells were plated at a density of 8×10^4 cells/mL in each well of the eight-well ibidi dishes before experiment. To sustain the hypoxia-induced factor throughout the drug treatment process, drug incubation was performed entirely in hypoxic chamber. […] The fluorescence of the alleviated HIF-1α expression upon drug treatment was visualized with Carl Zeiss LSM 800 microscopes (Hoechst 33258: Ex=405 nm, Em=460/50 nm; Alexa Fluor 488: Ex=488 nm, Em=515/30 nm; Alexa Fluor 594: Ex=561 nm, Em=617/20 nm).

zebrafish embryos = assay: Yolk extension phenotype of zebrafish embryos; format: in vivo; settings: 50 μM, hypoxia-normoxia alternating 8 h
Procedure: Wide type zebrafish embryos at 12 hpf was incubated with J252 (50 μM), JW4 (50 μM), or the mixture of JW4 (50 μM) and JQ1-CBT (50 μM) in hypoxia-normoxia alternative condition for 8 h at 28° C. After that, the embryos were further incubated in normoxia condition at 28° C. for 16 h before the yolk extension phenotypes were visualized under Zeiss LSM800 confocal microscope using bright-field channel. Embryos with JW4+JQ1-CBT treatment under normoxia were used as the controls.

zebrafish larvae = assay: Vascularization of vhl mutant and wide type zebrafish larvae (confocal imaging); format: in vivo; settings: vhl^hu2117 crosses, 10 μM; non-treatment approximately one quarter
Procedure: Vasculature zebrafishes were obtained from natural crosses of the AB wild-type strain or vhl^+/hu2117 carriers on the fli1a:egfp^y1 transgenic background (which fluorescently marks the vasculature). JW4 and JQ1-CBT were dissolved in DMSO and the mixture was applied to embryos at equimolar concentration of 10 μM, with J252 (10 μM) and JQ1 (10 μM) used for the control experiments. […] The vascular plexus was imaged on a Zeiss LSM800 confocal microscope. Green: blood vessel tracker, .ex: 488 nm, .em: 520/30 nm; red: . ex: 564 nm, .em: 610/30 nm.

BRD4 [1] = target: T1, BRD4 (Homo sapiens, UniProt O60885); assay: Hook effect: BRD4 degradation at extended degrader concentrations under hypoxia; format: cell-based; design: endogenous in cells
Procedure: as §1, with “The membrane was supplemented with Radiance Q chemiluminescent ECL substrate and visualized using Amersham™ ImageQuant™ 800 biomolecular imager. B-Tubulin was used as the internal control.” left out

NTR = NTR enzymatic cleavage in vitro (LC-MS); format: biochemical
Text: Upon the exertion of external enzymatic stimuli, the NTR-responsive moiety undergoes self-immolation to unleash the amino group. Simultaneously, the presence of a reduction agent cleaves the -StBu group to liberate thiol group (—SH), creating the cleaved-J266. The presence of a readily reactive amino group and thiol group on cleaved-J266, with the co-insertion of JQ1-CBT would spontaneously induce the CBT-cysteine orthogonal click conjugation, shaping the luciferin-based structure in click-J252 for targeted protein disruption (FIG. 12a). To validate the kinetics of ENCTAC formation, JW4 was tested against the presence of ntr enzyme accompanied by the co-factor, NADH, at 37° C. across a range of time settings in LC-MS system. The formation of J252 in the presence of J266 and JQ1-CBT was also evaluated by LC-MS.
A MS vial was sequentially added JW4 (10 μM), nicotinamide adenine dinucleotide (NADH, 0.5 mM) and NTR (40 μg/mL), and the mixture was dissolved in PBS (pH 7.4, 10 mM) to a total volume of 500 μL. The mixture in the vial was vortexed and incubated at 37° C. with varying time control from 0-240 min. Structural mass analysis was performed to observe any molecular mass alteration.
A MS vial was sequentially added JW4 (10 μM) or J268 ([…]), NADH (0.5 mM) and NTR (concentration range of 0-40 μg/mL), and the mixture was dissolved in PBS (pH 7.4, 10 mM) to a final volume of 500 μL. The mixture in the vial was vortexed and incubated at 37° C. for 120 min before subjecting to structural mass analysis.

[2] = tested on: broad range of enzymes and chemical agents; assay: Selectivity of JW4 with or without NADH (LC-MS); format: biochemical; settings: JW4 10 μM, reagents 0-40 μg/mL, 120 min
Procedure: A MS vial was sequentially added JW4 (10 μM), a reagent selected from sodium chloride, calcium chloride, ascorbic acid, glucose, cysteine, furin, CtsB, monoamine oxidase A (MAO-A) and monoamine oxidase B (MAO-B) (concentration range of 0-40 μg/mL), with or without the addition of NADH (0.5 mM) and the mixture was dissolved in PBS (pH 7.4, 10 mM) to a final volume of 500 μL. The mixture in the vial was vortexed and incubated at 37° C. for 120 min before it was subject to structural mass analysis.

BRD4 [3] = target: T1, BRD4; assay: BRD4 degradation by Western blot in HEK293T cells; format: cell-based; design: endogenous in cells; host or cells: HEK293T; settings: 12 h
Text: The effective production of BRD4 heterobifunctional degraders in solution allowed us to investigate the function of ENCTAC components in biological applications. […] Particularly, NTR responsive JW4, the pomalidomide-containing compound that can target CRBN and is a universal E3 ligase, is expected to be uncaged through NTR-assisted nitro and GSH reduction once it enters the hypoxic cells. The exposed cysteine groups are then readily linked with the CBT moieties on the JQ1-CBT fragments via a specific bioorthogonal click reaction. Besides, the JQ1 warheads are presumed to be simultaneously bound to the BRD4 proteins, thus forming bifunctional degraders in-situ for localized proteolysis (FIG. 17a). […] As proof-of-concept, the control molecule J266 that can only respond to GSH but not NTR, was first introduced into the HEK293T cell line (for 6 h), with subsequent addition of the JQ1-CBT (for 12 h). After intracellular formation of the click-J252, the proteolysis process was observed by western blot analysis.
HeLa, Hek293T, MDA-MB-231, 4T1 or B16F10 cells (1.5×10^6 cells/mL) were treated with J266 (10 μM) for 6 h before incubating with JQ1-CBT at the indicated concentrations and time. This entire incubation was performed in normoxia condition. […] The supernatant was collected and the protein concentration was analyzed by NanoDrop™ 2000/2000c Spectrophotometers. […]

CK2α [4] = target: T2, CK2α (Homo sapiens, UniProt P68400); assay: Concentration-dependent test for CK2α degradation (immunofluorescence / Western blot); format: cell-based; settings: 24 h
T2 sequence (P68400 whole entry): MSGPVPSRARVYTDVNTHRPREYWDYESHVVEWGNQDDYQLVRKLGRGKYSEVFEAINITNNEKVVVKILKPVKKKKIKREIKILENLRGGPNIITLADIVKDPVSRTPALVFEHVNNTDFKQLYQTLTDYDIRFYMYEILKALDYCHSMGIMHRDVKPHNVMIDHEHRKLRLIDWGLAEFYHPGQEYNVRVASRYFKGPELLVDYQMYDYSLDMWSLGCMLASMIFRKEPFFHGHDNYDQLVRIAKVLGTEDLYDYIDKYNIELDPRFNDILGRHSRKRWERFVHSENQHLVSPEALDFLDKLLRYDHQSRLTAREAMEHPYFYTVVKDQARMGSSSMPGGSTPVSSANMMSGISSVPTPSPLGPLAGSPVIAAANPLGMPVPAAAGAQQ
Procedure: Based on the established method (From Merck), the lysates were loaded into the wells in a Mini-PROTEAN® TGX™ 4-20% Precast Gel and run for separation in 30 min under 200 V.
Cell lines including HEK293T and MCF-7 was incubated with varied concentrations of T44 or T120 for 24 h. After that, the protein level was evaluated by the above immunofluorescence staining protocol. Alternatively, the protein level was evaluated by Western blot analysis. Particularly, The lysates of each group of cells were collected and centrifuged at 12,000×g for 20 min at 4° C. Protein levels in supernatants were determined using Nanodrop and equalized to the same concentration and boiled for 10 min with SDS-PAGE sample loading buffer before being separated using SDS-PAGE and transferred to the PVDF membrane. The membrane was then blocked with 5% BSA-TBST blocking buffer overnight at 4° C. Subsequently, CK2α Rabbit polyclonal Antibody (Cell signalling, #2656) was incubated overnight at 4° C. in 1% BSA-TBST buffer. After series of washing, the goat-anti rabbit IGG (H&L) secondary antibody was added and incubated for 1 h in 1% BSA-TBST. All signals were visualized using […] (Image quant 800) system.

CK2α [5] = target: T2, CK2α; assay: Immunofluorescence staining of CK2α degradation over time; format: cell-based; design: Hek293T, MCF-7, and U205 cells were chosen as they can express different levels of CK2α protein; endogenous in cells; host or cells: HEK293T, MCF-7, U2OS; settings: 0.1 or 1 μM, prolonged time (up to 20 h); Hek293T, MCF-7, U205 cells
Procedure: After the synthesis of T44 and T120 in Examples 1 and 2, their properties for protein degradation were examined. Hek293T, MCF-7, and U205 cells were chosen as they can express different levels of CK2α protein.
[…] Upon washing with PBS buffer thrice, the protein degradation was examined by immunofluorescence staining.
Each group of cells with density of 5×10^4 cells in each well of 8-well ibidi-dishes was treated with T120 or T44 at different concentration (0.1 μM or 1 μM) and time (0 h, 6 h, 18 h or 30 h). After treatment, the cells were fixed with 4% paraformaldehyde for 15 min, permeabilized with 0.25% Triton™ X-100 for 10 min and blocked with 5% BSA for 1 h at room temperature. The cells were then labelled with CK2α Rabbit polyclonal Antibody (Cell signalling, #2656) in 1% BSA and incubated for 3 h at r.t. Subsequently, Alexa Fluor 488-Goat Anti-Rabbit IgG secondary antibody was stained for 30 min at r.t. The nucleus was stained with Hoechst 33342 for 30 min at r.t. The degradation of CK2α protein was visualized with Carl Zeiss LSM 800 microscopes. (Hoechst 33342: Ex=405 nm, Em=460/50 nm; Alexa Fluor 488: Ex=488 nm, Em=515/30 nm).

Structure (SMILES) | HIF-1α protein level (HIF-1α) | yolk extension phenotype at 36 hpf (zebrafish embryos) | vascularized larvae (zebrafish larvae) | BRD4 degradation level (BRD4 [1]; 50 μM) | concentration at which decrease in efficiency of proteolysis started (hook effect) (BRD4 [1]; hypoxia) | NTR enzymatic uncaging (self-immolation) followed by LC-MS (NTR; 10 μM substrate, NTR 40 μg/mL, NADH, 37° C., span of 4 h) | Kcat of NTR uncaging (NTR; NTR, NADH 0.5 mM, PBS pH 7.4, 37° C.) | Km (NTR; NTR, NADH 0.5 mM, PBS pH 7.4, 37° C., read-out: Km of NTR uncaging) | cleavage by different components and enzymes [2] | BRD4 degradation by independent treatment (alone) (BRD4 [3]) | CK2α degradation effect, concentration dependence (CK2α [4]; HEK293T and MCF-7 cells) | CK2α fluorescence change with different concentrations (CK2α [4]; MCF-7 cells) | CK2α antibody fluorescence signal in cells after incubation (CK2α [5])
Cc1sc2c(c1C)C(c1ccc(Cl)cc1)=N[C@@H](CC(=O)Oc1ccc3nc(C4N=C(C(=O)NCCOCCOCC(=O)Nc5cccc6c5C(=O)N(C5CCC(=O)NC5=O)C6=O)CS4)sc3c1)c1nnc(C)n1-2 (some centres unmarked) [J252] | able to downregulate | similarly less extension of yolk | 22.5% | around 20% | 5 µM |  |  |  |  |  |  |  | 
CC(C)(C)SSC[C@@H](NC(=O)OCc1ccc([N+](=O)[O-])cc1)C(=O)NCCOCCOCC(=O)Nc1cccc2c1C(=O)N(C1CCC(=O)NC1=O)C2=O (some centres unmarked) [JW4, Pomalidomide-PEG-NTR] | did not induce HIF-1α elimination |  |  |  |  | near to completion | 0.000262 s⁻¹ | 101 µM | no obvious cleavage except for NTR+NADH | did not induce any degradation |  |  | 
COc1cc(/C=N/n2c(SC)nnc2-c2ccc(OCCOCCOCCOCc3cn(CCOCC(=O)Nc4cccc5c4C(=O)N(C4CCC(=O)NC4=O)C5=O)nn3)cc2)c(Br)cc1O (centres unmarked) [T44] |  |  |  |  |  |  |  |  |  |  | cell-dependent | no obvious fluorescence change | decreased fluorescence signals
